Assay results: US11590116B2 (THERAVANCE BIOPHARMA R&D IP, LLC, priority 2019, dated 2023)

Assays:
[1] = target: T1, recombinant human ALK5 (TGF-βR1) protein (Homo sapiens, UniProt P36897); assay: Biochemical ALK5 (TGF-βR1) assay to measure pKi (LANCE Ultra ULight kinase assay); conditions: apparent pKi from pIC50 by Cheng-Prusoff, read-out: ALK5 pKi (converted)
T1 construct: purchased Life Technologies PR9075A
T1 sequence (P36897 34-503): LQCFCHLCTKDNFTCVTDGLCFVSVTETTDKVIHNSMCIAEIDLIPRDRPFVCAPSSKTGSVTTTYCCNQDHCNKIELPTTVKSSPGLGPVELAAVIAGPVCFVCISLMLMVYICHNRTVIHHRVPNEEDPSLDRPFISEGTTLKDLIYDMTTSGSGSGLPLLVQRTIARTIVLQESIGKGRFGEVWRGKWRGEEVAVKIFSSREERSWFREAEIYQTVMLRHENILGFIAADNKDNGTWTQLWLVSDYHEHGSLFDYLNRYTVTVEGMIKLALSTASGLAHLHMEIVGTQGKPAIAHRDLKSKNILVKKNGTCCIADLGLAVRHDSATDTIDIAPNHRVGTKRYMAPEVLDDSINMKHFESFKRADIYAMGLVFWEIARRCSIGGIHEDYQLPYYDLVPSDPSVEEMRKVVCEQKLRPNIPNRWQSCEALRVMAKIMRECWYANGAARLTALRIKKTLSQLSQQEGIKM
How it was run: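 Compounds (10 μM to 25 pM) were preincubated 60 min at room temperature with enzyme, then reactions were started with ATP (125 μM stock, 5× final) and run 60 min at 37 °C. EDTA-containing Eu-anti-phospho-Topo IIα (Thr1342) antibody stopped the reaction; TR-FRET read at 665 nm. pIC50 from 4-parameter fit, converted to pKi via Cheng-Prusoff.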

[2] = system: TGF-β-stimulated SMAD3 phosphorylation in BEAS-2B cells; assay: Cellular ALK5 potency assay, inhibition of TGF-β stimulated pSMAD3 formation in BEAS-2B cells; type: cell-based; conditions: Homo sapiens; inhibition of TGF-β stimulated pSMAD3 formation, BEAS-2B cells; read-out: BEAS2B pIC50 (converted)
How it was run: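 pSMAD3 was quantified by AlphaLISA in BEAS-2B lysates after 10 ng/mL TGF-β (final) for 30 min. Before stimulation, cells received compound for 1 h at 37° C in supplemented HBSS. Values are pIC50, relative to TGF-β-stimulated cells without compound.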

Row | SMILES | Ki [1] [nM] | IC50 [2] [nM]
1 | Cc1nc(-c2n[nH]cc2-c2ccc3ncc(-c4cn5c(n4)CNCC5)cc3n2)ccc1F [Compound 422, 2-[3-(5-fluoro-6-methyl-2-pyridyl)-1H-pyrazol-4-yl]-7-(5,6,7,8-tetrahydroimidazo[1,2-a]pyrazin-2-yl)-1,5-naphthyridine] | < 0.0316 | 25.1 to 158
2 | Cc1nc(-c2[nH]cnc2-c2ccc3ncc(-c4cn[nH]c4)cc3c2)ccc1F [Compound 423, 6-[5-(5-fluoro-6-methyl-2-pyridyl)-1H-imidazol-4-yl]-3-(1H-pyrazol-4-yl)quinoline] | < 0.0316 | < 20
3 | Cc1cccc(-c2[nH]cnc2-c2ccc3ncc(N4CCC(C(=O)OCC5CNC5)CC4)cc3c2)n1 [Compound 424, azetidin-3-ylmethyl 1-[6-[5-(6-methyl-2-pyridyl)-1H-imidazol-4-yl]-3-quinolyl]piperidine-4-carboxylate] | 0.0398 to 0.316 | 200 to 1260
4 | Cc1nc(-c2n[nH]cc2-c2ccc3ncc(-c4nc5c([nH]4)CNCC5)cc3n2)ccc1F [Compound 425, 2-[3-(5-fluoro-6-methyl-2-pyridyl)-1H-pyrazol-4-yl]-7-(4,5,6,7-tetrahydro-3H-imidazo[4,5-c]pyridin-2-yl)-1,5-naphthyridine] | 0.0398 to 0.316 | 200 to 1260
5 | Cc1cccc(-c2n[nH]cc2-c2ccc3ncc(-c4c(C)nn(C)c4C)cc3n2)n1 [Compound 426, 2-[3-(6-methyl-2-pyridyl)-1H-pyrazol-4-yl]-7-(1,3,5-trimethylpyrazol-4-yl)-1,5-naphthyridine] | 0.0398 to 0.316 | 25.1 to 158
6 | Cc1cccc(-c2n[nH]cc2-c2ccc3ncc(-c4cn5c(n4)CN(CCN)CC5)cc3n2)n1 [Compound 427, 2-[2-[6-[3-(6-methyl-2-pyridyl)-1H-pyrazol-4-yl]-1,5-naphthyridin-3-yl]-6,8-dihydro-5H-imidazo[1,2-a]pyrazin-7-yl]ethanamine] | 0.0398 to 0.316 | 200 to 1260
7 | Cc1cccc(-c2n[nH]cc2-c2ccc3ncc(NCCN4CCN(C(C)C)CC4)cc3c2)n1 [Compound 428, N-[2-(4-isopropylpiperazin-1-yl)ethyl]-6-[3-(6-methyl-2-pyridyl)-1H-pyrazol-4-yl]quinolin-3-amine] | 0.0398 to 0.316 | 25.1 to 158
8 | Cc1cccc(-c2[nH]cnc2-c2ccc3ncc(C4=CCNC4)cc3c2)n1 [Compound 429, 3-(2,5-dihydro-1H-pyrrol-3-yl)-6-[5-(6-methyl-2-pyridyl)-1H-imidazol-4-yl]quinoline] | 0.0398 to 0.316 | < 20
9 | Cc1cccc(-c2[nH]cnc2-c2ccc3ncc(-c4cn[nH]c4)cc3c2)n1 [Compound 430, 6-[5-(6-methyl-2-pyridyl)-1H-imidazol-4-yl]-3-(1H-pyrazol-4-yl)quinoline] | < 0.0316 | < 20
10 | Cc1cccc(-c2n[nH]cc2-c2ccc3ncc(NCC4CNC4)cc3n2)n1 [Compound 431, N-(azetidin-3-ylmethyl)-6-[3-(6-methyl-2-pyridyl)-1H-pyrazol-4-yl]-1,5-naphthyridin-3-amine] | 0.0398 to 0.316 | 1580 to 10000
11 | Cc1cccc(-c2[nH]cnc2-c2ccc3ncc(C4=CCC(O)CC4)cc3c2)n1 (stereo not shown) [Compound 432, 4-[6-[5-(6-methyl-2-pyridyl)-1H-imidazol-4-yl]-3-quinolyl]cyclohex-3-en-1-ol] | < 0.0316 | < 20
12 | Cc1cccc(-c2n[nH]cc2-c2ccc3ncc(N4CCC[C@@H](N(C)C)C4)cc3n2)n1 [Compound 433, (3R)-N,N-dimethyl-1-[6-[3-(6-methyl-2-pyridyl)-1H-pyrazol-4-yl]-1,5-naphthyridin-3-yl]piperidin-3-amine] | 0.0398 to 0.316 | 25.1 to 158
13 | Cc1cccc(-c2[nH]cnc2-c2ccc3ncc(-c4cnn(C5CNC5)c4)cc3c2)n1 [Compound 434, 3-[1-(azetidin-3-yl)pyrazol-4-yl]-6-[5-(6-methyl-2-pyridyl)-1H-imidazol-4-yl]quinoline] | < 0.0316 | 25.1 to 158
14 | Cc1cccc(-c2n[nH]cc2-c2ccc3ncc(-c4cnn(CCN)c4)cc3c2)n1 [Compound 435, 2-[4-[6-[3-(6-methyl-2-pyridyl)-1H-pyrazol-4-yl]-3-quinolyl]pyrazol-1-yl]ethanamine] | < 0.0316 | 25.1 to 158
15 | Cc1cccc(-c2n[nH]cc2-c2ccc3ncc(-c4ccc(C)nc4C)cc3n2)n1 [Compound 436, 7-(2,6-dimethyl-3-pyridyl)-2-[3-(6-methyl-2-pyridyl)-1H-pyrazol-4-yl]-1,5-naphthyridine] | 0.0398 to 0.316 | 25.1 to 158
16 | Cc1cccc(-c2[nH]cnc2-c2ccc3ncc(N4CCC(N)CC4)cc3c2)n1 [Compound 438, 1-[6-[5-(6-methyl-2-pyridyl)-1H-imidazol-4-yl]-3-quinolyl]piperidin-4-amine] | 0.0398 to 0.316 | 25.1 to 158
17 | CNCCn1cc(-c2cnc3ccc(-c4c(-c5cccc(C)n5)nnn4Cc4ccccc4)nc3c2)cn1 [Compound 439, 2-[4-[6-[3-benzyl-5-(6-methyl-2-pyridyl)triazol-4-yl]-1,5-naphthyridin-3-yl]pyrazol-1-yl]-N-methyl-ethanamine] | 0.0398 to 0.316 | 25.1 to 158
18 | Cc1cccc(-c2n[nH]cc2-c2ccc3ncc(-c4cn5c(n4)CN(C4CCNC4)CC5)cc3n2)n1 (stereo not shown) [Compound 440, 2-[3-(6-methyl-2-pyridyl)-1H-pyrazol-4-yl]-7-(7-pyrrolidin-3-yl-6,8-dihydro-5H-imidazo[1,2-a]pyrazin-2-yl)-1,5-naphthyridine] | 0.0398 to 0.316 | 200 to 1260
19 | Cc1cccc(-c2[nH]cnc2-c2ccc3ncc(Nc4ccc(N5CCN(C)CC5)cn4)cc3c2)n1 [Compound 441, N-[5-(4-methylpiperazin-1-yl)-2-pyridyl]-6-[5-(6-methyl-2-pyridyl)-1H-imidazol-4-yl]quinolin-3-amine] | < 0.0316 | 25.1 to 158
20 | COC(=O)[C@H]1CN(c2cnc3ccc(-c4c[nH]nc4-c4cccc(C)n4)nc3c2)CCN1 [Compound 442, methyl (2R)-4-[6-[3-(6-methyl-2-pyridyl)-1H-pyrazol-4-yl]-1,5-naphthyridin-3-yl]piperazine-2-carboxylate] | 0.0398 to 0.316 | 25.1 to 158
21 | Cc1cccc(-c2[nH]cnc2-c2ccc3ncc(-c4cnc5c(c4)CNC5)cc3c2)n1 [Compound 443, 3-(6,7-dihydro-5H-pyrrolo[3,4-b]pyridin-3-yl)-6-[5-(6-methyl-2-pyridyl)-1H-imidazol-4-yl]quinoline] | 0.0398 to 0.316 | 25.1 to 158
22 | Cc1cccc(-c2[nH]cnc2-c2ccc3ncc(C4=CCC(C(=O)OC5CCNCC5)CC4)cc3c2)n1 (stereo not shown) [Compound 444, 4-piperidyl 4-[6-[5-(6-methyl-2-pyridyl)-1H-imidazol-4-yl]-3-quinolyl]cyclohex-3-ene-1-carboxylate] | 0.0398 to 0.316 | 25.1 to 158
23 | Cc1cccc(-c2n[nH]cc2-c2ccc3ncc(-c4ncn5c4NCC5)cc3n2)n1 [Compound 445, 7-(2,3-dihydro-1H-imidazo[1,5-a]imidazol-7-yl)-2-[3-(6-methyl-2-pyridyl)-1H-pyrazol-4-yl]-1,5-naphthyridine] | 0.0398 to 0.316 | 25.1 to 158
24 | FC(F)c1cccc(-c2n[nH]cc2-c2ccc3ncc(N4CCCNCC4)cc3n2)n1 [Compound 446, 7-(1,4-diazepan-1-yl)-2-[3-[6-(difluoromethyl)-2-pyridyl]-1H-pyrazol-4-yl]-1,5-naphthyridine] | 0.0398 to 0.316 | 25.1 to 158
25 | Cc1nc(-c2nc3ccccn3c2-c2ccc3ncc(-c4nc5n(n4)CCNC5)cc3n2)ccc1F [Compound 447, 2-[2-(5-fluoro-6-methyl-2-pyridyl)imidazo[1,2-a]pyridin-3-yl]-7-(5,6,7,8-tetrahydro-[1,2,4]triazolo[1,5-a]pyrazin-2-yl)-1,5-naphthyridine] | 0.0398 to 0.316 | 25.1 to 158
26 | Cc1cccc(-c2nc[nH]c2-c2ccc3ncc(-c4cnn([C@@H]5CCCC[C@H]5N)c4)cc3c2)n1 [Compound 448, (1R,2R)-2-[4-[6-[4-(6-methyl-2-pyridyl)-1H-imidazol-5-yl]-3-quinolyl]pyrazol-1-yl]cyclohexanamine] | < 0.0316 | 25.1 to 158
27 | Cc1nc(-c2n[nH]cc2-c2ccc3ncc(-c4cn[nH]c4)cc3c2)ccc1F [Compound 449, 6-[3-(5-fluoro-6-methyl-2-pyridyl)-1H-pyrazol-4-yl]-3-(1H-pyrazol-4-yl)quinoline] | < 0.0316 | < 20
28 | Cc1cccc(-c2[nH]cnc2-c2ccc3ncc(-c4cccc(NC5CCNCC5)n4)cc3c2)n1 [Compound 450, 6-[6-[5-(6-methyl-2-pyridyl)-1H-imidazol-4-yl]-3-quinolyl]-N-(4-piperidyl)pyridin-2-amine] | 0.0398 to 0.316 | 25.1 to 158
29 | Cc1cccc(-c2[nH]cnc2-c2ccc3ncc(C4=C[C@H](C)N[C@H](C)C4)cc3c2)n1 [Compound 451, 3-[(2R,6S)-2,6-dimethyl-1,2,3,6-tetrahydropyridin-4-yl]-6-[5-(6-methyl-2-pyridyl)-1H-imidazol-4-yl]quinoline] | 0.0398 to 0.316 | 25.1 to 158
